These results are taken from patent US5998362A, “Conjugates useful in the treatment of prostate cancer” (priority 1997, dated 1999).

Where a SMILES comes first, the peptide text is derived from it. [ ]: non-standard residue; d: D form. The star is where a group is joined. X2 = COCCOCCOCCOCCOCCOCCOCCOCCOCCOCCOCCOCCOCCOCCOCCOCCOCC(=O)*; X5 = COCCOCCOCCOCCOCCOCCOCCOCCOCCOCCOCCOCCOCCOCCOCCOCC(=O)*; X6 = COCCOCCOCCOCCOCCOCCOCCOCCOCCOCCOCCOCCOCCOCCOCC(=O)*; Decanoyl(3,6,9-trioxa) = COCCOCCOCC(=O)*; Glyceroyl(2S) = O=C([C@@H](O)CO)*; Glyceroyl(2R) = O=C([C@H](O)CO)*; hArg = N=C(N)NCCCC[C@H](N)C(=O)O; 3Pal = N[C@@H](Cc1cccnc1)C(=O)O; MeOCH2CH2OCH2CO = COCCOCC(=O)*; Chg = N[C@H](C(=O)O)C1CCCCC1; Nle = CCCC[C@H](N)C(=O)O; Glycolyl = O=C(CO)*; X3 = O=C(C(O)CO)*

This series addresses free PSA (Homo sapiens, UniProt P07288). Description: Recognition of oligopeptides by free PSA (time to 50% cleavage, HPLC). The protocol: The oligopeptides prepared as described in Example 1 were individually dissolved in PSA digestion buffer (12 mM tris(hydroxymethyl)-aminomethane pH8.0, 25 mM NaCl, 0.5 mM CaCl2) and the solution added to PSA at a molar ration of 100 to 1. The reaction is quenched after various reaction times by the addition of trifluoroacetic acid (TFA) to a final 1% (volume/volume). The quenched reaction was analyzed by HPLC on a reversed-phase C18 column using an aqueous 0.1% TFA/acetonitrile gradient. […] Oligopeptides containing free amine moieties (ie. comprising hArg, Orn, Lys and or 3PAL) were tested as TFA salts. All other oligopeptides were tested as neutral compounds.

Sequence of free PSA (P07288 25-261): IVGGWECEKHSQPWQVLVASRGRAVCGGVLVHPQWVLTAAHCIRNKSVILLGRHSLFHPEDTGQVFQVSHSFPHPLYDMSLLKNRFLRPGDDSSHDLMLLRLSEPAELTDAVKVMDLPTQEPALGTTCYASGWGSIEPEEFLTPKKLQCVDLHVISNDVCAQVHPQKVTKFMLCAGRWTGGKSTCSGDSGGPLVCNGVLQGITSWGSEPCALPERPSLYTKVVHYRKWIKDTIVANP

Take `COCCOCCOCCOCCOCCOCCOCCOCCOCCOCCOCCOCCOCCOCCOCCOCC(=O)N[C@@H](CO)C(=O)N[C@@H](CCCCNC(=N)N)C(=O)N[C@@H](Cc1ccc(O)cc1)C(=O)N[C@@H](CCC(N)=O)C(=O)N[C@@H](CO)C(=O)N[C@@H](CC(C)C)C(=O)O` [PEG(15)-ShRYQ-SL-acid] (X5-S[hArg]YQSL-OH): the “Time to 50% Substrate Cleavage by York PSA” value (free psa, pH 8) is 40 min. For `COCCOCCOCCOCCOCCOCCOCCOCCOCCOCCOCCOCCOCCOCCOCC(=O)N[C@@H](CO)C(=O)N[C@@H](CCCCNC(=N)N)C(=O)N[C@@H](Cc1ccc(O)cc1)C(=O)N[C@@H](CCC(N)=O)C(=O)N[C@@H](CO)C(=O)N[C@@H](CC(C)C)C(=O)O` [PEG(14)ShRYQ-SL-acid] (X6-S[hArg]YQSL-OH), for the setting “free psa, pH 8”, the “Time to 50% Substrate Cleavage by York PSA” value worked out at 40 min. `CC(C)C[C@H](NC(=O)[C@H](CO)NC(=O)[C@H](CCC(N)=O)NC(=O)[C@@H](NC(=O)[C@H](CCCCNC(=N)N)NC(=O)[C@@H](N)CO)C1CCCCC1)C(=O)O` [ShRChgQ-SL -acid] (H-S[hArg][Chg]QSL-OH): where the note is “Table 2, oligopeptides, 4 hours”, the “Substrate cleavage by York PSA at 4 HOUR” value amounted to 8%. For `CCCC[C@H](NC(=O)[C@H](CO)NC(=O)[C@H](CCC(N)=O)NC(=O)[C@H](Cc1ccc(O)cc1)NC(=O)[C@H](CO)NC(=O)[C@H](CO)NC(=O)[C@H](CCCCNC(=N)N)NC(=O)CO)C(=O)O` [2-hydroxyacetyl-hRSSYQ-SNle-acid] (Glycolyl-[hArg]SSYQS[Nle]-OH), the “Time to 50% Substrate Cleavage by York PSA” value (free psa, pH 8) worked out at 45 min. Regarding `COCCOCCOCC(=O)N[C@@H](Cc1cccnc1)C(=O)N[C@@H](CO)C(=O)N[C@@H](CO)C(=O)N[C@H](C(=O)N[C@@H](CCC(N)=O)C(=O)N[C@@H](CO)C(=O)N[C@@H](CC(C)C)C(=O)O)C1CCCCC1` [PEG(2)-3PAL-SSChgQ-SL-acid] ({Decanoyl(3,6,9-trioxa)}-[3Pal]SS[Chg]QSL-OH), the “Time to 50% Substrate Cleavage by York PSA” value (free psa, pH 8) was found to be 80 min. For the compound `COCCOCCOCCOCCOCCOCCOCCOCCOCCOCCOCCOCCOCCOCCOCCOCCOCCOCC(=O)N[C@@H](CO)C(=O)N[C@@H](CCCCNC(=N)N)C(=O)N[C@@H](Cc1ccc(O)cc1)C(=O)N[C@@H](CCC(N)=O)C(=O)N[C@@H](CO)C(=O)N[C@@H](CC(C)C)C(=O)O` [PEG(17)-ShRYQ-SL-acid], the “Time to 50% Substrate Cleavage by York PSA” value (Table 2, oligopeptides, PSA digestion buffer 12 mM Tris pH8.0, 25 mM NaCl, 0.5 mM CaCl2, substrate:PSA 100 to 1) was found to be 55 min.

For the compound `CC(C)C[C@H](NC(=O)[C@H](CO)NC(=O)[C@H](CCC(N)=O)NC(=O)[C@@H](NC(=O)[C@H](CO)NC(=O)[C@H](CO)NC(=O)[C@H](Cc1cccnc1)NC(=O)[C@@H](O)CO)C1CCCCC1)C(=O)O` [(I)2,3-dihydroxypropionyl-3PAL-SSChgQ-SL-acid] ({Glyceroyl(2S)}-[3Pal]SS[Chg]QSL-OH), under “free psa, pH 8”, the “Time to 50% Substrate Cleavage by York PSA” value was determined as 70 min.

For `COCCOCCOCC(=O)N[C@@H](CO)C(=O)N[C@@H](CO)C(=O)N[C@@H](CO)C(=O)N[C@H](C(=O)N[C@@H](CCC(N)=O)C(=O)N[C@@H](CO)C(=O)N[C@@H](CC(C)C)C(=O)O)C1CCCCC1` [PEG(2)SSSChgQ-SL-acid] ({Decanoyl(3,6,9-trioxa)}-SSS[Chg]QSL-OH), the “Time to 50% Substrate Cleavage by York PSA” value (free psa, pH 8) was determined as 150 min. The same measure, in the same setting: the same measure for `COCCOCCOCCOCCOCCOCCOCCOCCOCCOCCOCCOCCOCCOCCOCCOCCOCC(=O)N[C@@H](CO)C(=O)N[C@@H](CCCCNC(=N)N)C(=O)N[C@@H](Cc1ccc(O)cc1)C(=O)N[C@@H](CCC(N)=O)C(=O)N[C@@H](CO)C(=O)N[C@@H](CC(C)C)C(=O)O` [PEG(16)-ShRYQ-SL-acid] (X2-S[hArg]YQSL-OH): 40 min; for `CC(C)C[C@H](NC(=O)[C@H](CO)NC(=O)[C@H](CCC(N)=O)NC(=O)[C@@H](NC(=O)[C@H](CO)NC(=O)[C@H](CO)NC(=O)CNC(=O)C(O)CO)C1CCCCC1)C(=O)O` (some centres unmarked) [2,3-dihydroxypropionyl-GSSChgQ-SL-acid] (X3-GSS[Chg]QSL-OH): 160 min; for `CC(C)C[C@H](NC(=O)[C@H](CO)NC(=O)[C@H](CCC(N)=O)NC(=O)[C@@H](NC(=O)[C@H](CO)NC(=O)[C@H](CO)NC(=O)[C@H](CO)NC(=O)C(O)CO)C1CCCCC1)C(=O)O` (some centres unmarked) [2,3-dihydroxypropionyl-SSSChgQ-SL-acid] (X3-SSS[Chg]QSL-OH): 120 min. For `COCCOCCOCCOCCOCCOCCOCCOCCOCCOCCOCCOCCOCCOCCOCCOCCOCCOCCOCC(=O)N[C@@H](CO)C(=O)N[C@@H](CCCCNC(=N)N)C(=O)N[C@@H](Cc1ccc(O)cc1)C(=O)N[C@@H](CCC(N)=O)C(=O)N[C@@H](CO)C(=O)N[C@@H](CC(C)C)C(=O)O` [PEG(18)ShRYQ-SL-acid], the “Time to 50% Substrate Cleavage by York PSA” value (free psa, pH 8) came to 40 min. Take `CCCC[C@H](NC(=O)[C@H](CO)NC(=O)[C@H](CCC(N)=O)NC(=O)[C@@H](NC(=O)[C@H](CCCCNC(=N)N)NC(=O)[C@H](CO)NC(C)=O)C1CCCCC1)C(=O)O` [Ac-ShRChgQ-SNle-acid] (Ac-S[hArg][Chg]QS[Nle]-OH): the “Solubility remark in the cleavage column (INSOLUBLE / PS / PP)” value (Table 2, oligopeptides, abbreviations not defined) was “INSOLUBLE”.

With `COCCOCCOCC(=O)N[C@@H](CCCCNC(=N)N)C(=O)N[C@@H](CO)C(=O)N[C@@H](CO)C(=O)N[C@H](C(=O)N[C@@H](CCC(N)=O)C(=O)N[C@@H](CO)C(=O)N[C@@H](CC(C)C)C(=O)O)C1CCCCC1` [PEG(2)-hRSSChgQ-SL-acid] ({Decanoyl(3,6,9-trioxa)}-[hArg]SS[Chg]QSL-OH), under “free psa”, the “Time to 50% Substrate Cleavage by York PSA (Min), values marked *” value amounted to 40 min. Consider `COCCOCC(=O)N[C@@H](CO)C(=O)N[C@@H](CCCCNC(=N)N)C(=O)N[C@@H](Cc1ccc(O)cc1)C(=O)N[C@@H](CCC(N)=O)C(=O)N[C@@H](CO)C(=O)N[C@@H](CC(C)C)C(=O)O` [PEG(1)-ShRYQ-SL-acid] (MeOCH2CH2OCH2CO-S[hArg]YQSL-OH), for which the “Time to 50% Substrate Cleavage by York PSA” value (free psa, pH 8) came out at 90 min. As for `COCCOCC(=O)N[C@@H](CCCCNC(=N)N)C(=O)N[C@@H](CO)C(=O)N[C@@H](CO)C(=O)N[C@H](C(=O)N[C@@H](CCC(N)=O)C(=O)N[C@@H](CO)C(=O)N[C@@H](CC(C)C)C(=O)O)C1CCCCC1` [PEG(1)-hRSSChgQ-SL-acid] (MeOCH2CH2OCH2CO-[hArg]SS[Chg]QSL-OH), the “Time to 50% Substrate Cleavage by York PSA” value (free psa, pH 8) came to 30 min. For `COCCOCCOCC(=O)N[C@@H](CO)C(=O)N[C@@H](CCCCNC(=N)N)C(=O)N[C@@H](Cc1ccc(O)cc1)C(=O)N[C@@H](CCC(N)=O)C(=O)N[C@@H](CO)C(=O)N[C@@H](CC(C)C)C(=O)O` [PEG(2)-ShRYQ-SL-acid] ({Decanoyl(3,6,9-trioxa)}-S[hArg]YQSL-OH), the “Time to 50% Substrate Cleavage by York PSA (Min), values marked *” value (free psa) was determined as 35 min.

As for `COCCOCCOCC(=O)N[C@@H](CO)C(=O)N[C@@H](CO)C(=O)N[C@@H](Cc1ccc(O)cc1)C(=O)N[C@@H](CCC(N)=O)C(=O)N[C@@H](CO)C(=O)N[C@@H](CC(C)C)C(=O)O` [PEG(2)-SSYQ-SL-acid] ({Decanoyl(3,6,9-trioxa)}-SSYQSL-OH), the “Time to 50% Substrate Cleavage by York PSA” value (free psa, pH 8) was determined as 150 min. Take `CC(C)C[C@H](NC(=O)[C@H](CO)NC(=O)[C@H](CCC(N)=O)NC(=O)[C@@H](NC(=O)[C@H](CO)NC(=O)[C@H](CO)NC(=O)[C@H](CO)NC(=O)CO)C1CCCCC1)C(=O)O` [(OH-Ac)SSSChgQ-SL-acid] (Glycolyl-SSS[Chg]QSL-OH): the “Time to 50% Substrate Cleavage by York PSA” value (free psa, pH 8) was determined as 120 min. Take `CC(C)C[C@H](NC(=O)[C@H](CO)NC(=O)[C@H](CCC(N)=O)NC(=O)[C@@H](NC(=O)[C@H](CO)NC(=O)[C@H](CO)NC(=O)[C@H](Cc1cccnc1)NC(=O)[C@H](O)CO)C1CCCCC1)C(=O)O` [(d)2,3-dihydroxypropionyl-3PAL-SSChgQSL-acid] ({Glyceroyl(2R)}-[3Pal]SS[Chg]QSL-OH): the “Time to 50% Substrate Cleavage by York PSA” value (free psa, pH 8) was 80 min.
